US12077503B2, “Substituted cyclic amides and their use as herbicides” (FMC CORPORATION, priority 2015, dated 2024)

Key:
Format in all cases: in vivo
[1] = test system: barnyardgrass (Echinochloa crus-galli); assay: Test G Pre-Emergence Protocol; settings: Echinochloa crus-galli, pre-emergence, 312 h, evaluated after 13 days; for pest or weed control at 15.625 g/ha: 15.625 g ai/ha; for pest or weed control at 15.625 g/ha / pest or weed control at 250 g/ha: read-out: Barnyardgrass damage rating (100=total damage to plant; 0=no damage to plant); for pest or weed control at 62.5 g/ha: 62.5 g ai/ha, 100=total damage to plant, 0=no damage to plant, read-out: Barnyardgrass damage rating; for pest or weed control at 250 g/ha: 250 g ai/ha
Outline: (§1)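 Herbicidal effect was rated 13 days post-application on a scale where 100 equals total damage. Spraying took place the day after sowing, using 15.625, 62.5 or 250 g/ha of compound in a 50:50 acetone/water solution with 0.5% Tween 20.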

[2] = test system: giant foxtail (Setaria faberi); assay: Test G Pre-Emergence Protocol; settings: Setaria faberi, pre-emergence, 312 h, evaluated after 13 days; for pest or weed control at 15.625 g/ha: 15.625 g ai/ha; for pest or weed control at 15.625 g/ha / pest or weed control at 250 g/ha: read-out: Foxtail, Giant damage rating (100=total damage to plant; 0=no damage to plant); for pest or weed control at 62.5 g/ha: 62.5 g ai/ha, 100=total damage to plant, 0=no damage to plant, read-out: Foxtail, Giant damage rating; for pest or weed control at 250 g/ha: 250 g ai/ha
Outline: as §1

[3] = test system: velvetleaf (Abutilon theophrasti); assay: Test G Pre-Emergence Protocol; settings: Abutilon theophrasti, pre-emergence, 312 h, evaluated after 13 days; for pest or weed control at 15.625 g/ha: 15.625 g ai/ha; for pest or weed control at 15.625 g/ha / pest or weed control at 250 g/ha: read-out: Velvetleaf damage rating (100=total damage to plant; 0=no damage to plant); for pest or weed control at 62.5 g/ha: 62.5 g ai/ha, 100=total damage to plant, 0=no damage to plant, read-out: Velvetleaf damage rating; for pest or weed control at 250 g/ha: 250 g ai/ha
Outline: as §1

[4] = test system: ivy-leaved morning glory (Ipomoea hederacea); assay: Test G Pre-Emergence Protocol; settings: Ipomoea, pre-emergence, 312 h, evaluated after 13 days; for pest or weed control at 15.625 g/ha: 15.625 g ai/ha
Outline: as §1

corn (Zea mays) [5] = assay: Test G Pre-Emergence Protocol; settings: Zea mays, pre-emergence, 312 h, evaluated after 13 days; for plant injury at 15.625 g/ha: 15.625 g ai/ha; for plant injury at 15.625 g/ha / plant injury at 250 g/ha: read-out: Corn damage rating (100=total damage to plant; 0=no damage to plant); for plant injury at 62.5 g/ha: 62.5 g ai/ha, 100=total damage to plant, 0=no damage to plant, read-out: Corn damage rating; for plant injury at 250 g/ha: 250 g ai/ha
Outline: as §1

[6] = test system: redroot pigweed (Amaranthus retroflexus); assay: Test G Pre-Emergence Protocol; settings: Amaranthus retroflexus, pre-emergence, 312 h, evaluated after 13 days; for pest or weed control at 15.625 g/ha: 15.625 g ai/ha; for pest or weed control at 15.625 g/ha / pest or weed control at 250 g/ha: read-out: Pigweed, Redroot damage rating (100=total damage to plant; 0=no damage to plant); for pest or weed control at 62.5 g/ha: 62.5 g ai/ha, 100=total damage to plant, 0=no damage to plant, read-out: Pigweed, Redroot damage rating; for pest or weed control at 250 g/ha: 250 g ai/ha
Outline: as §1

[7] = test system: barnyardgrass (Echinochloa crus-galli); assay: Test G Post-Emergence Protocol; settings: Echinochloa crus-galli, post-emergence, 312 h, read-out: Barnyardgrass damage rating; for pest or weed control at 15.625 g/ha: 15.625 g ai/ha, evaluated after 13 days (100=total damage to plant; 0=no damage to plant); for pest or weed control at 62.5 g/ha: 62.5 g ai/ha; for pest or weed control at 62.5 g/ha / pest or weed control at 250 g/ha: evaluated after 13 days, 100=total damage to plant, 0=no damage to plant; for pest or weed control at 250 g/ha: 250 g ai/ha
Outline: (§2)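 Scores run 0 (no damage) to 100 (total damage) and were taken 13 days after spraying. Plants had been raised in pots for 8 days under glasshouse control (24/16 °C, 14 h photoperiod, 65% humidity) and then treated at 15.625, 62.5 or 250 g/ha.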

[8] = test system: giant foxtail (Setaria faberi); assay: Test G Post-Emergence Protocol; settings: Setaria faberi, post-emergence, 312 h, read-out: Foxtail, Giant damage rating; for pest or weed control at 15.625 g/ha: 15.625 g ai/ha, evaluated after 13 days (100=total damage to plant; 0=no damage to plant); for pest or weed control at 62.5 g/ha: 62.5 g ai/ha; for pest or weed control at 62.5 g/ha / pest or weed control at 250 g/ha: evaluated after 13 days, 100=total damage to plant, 0=no damage to plant; for pest or weed control at 250 g/ha: 250 g ai/ha
Outline: as §2

[9] = test system: velvetleaf (Abutilon theophrasti); assay: Test G Post-Emergence Protocol; settings: Abutilon theophrasti, post-emergence, 312 h, read-out: Velvetleaf damage rating; for pest or weed control at 15.625 g/ha: 15.625 g ai/ha, evaluated after 13 days (100=total damage to plant; 0=no damage to plant); for pest or weed control at 62.5 g/ha: 62.5 g ai/ha; for pest or weed control at 62.5 g/ha / pest or weed control at 250 g/ha: evaluated after 13 days, 100=total damage to plant, 0=no damage to plant; for pest or weed control at 250 g/ha: 250 g ai/ha
Outline: as §2

[10] = test system: ivy-leaved morning glory (Ipomoea hederacea); assay: Test G Post-Emergence Protocol; settings: Ipomoea, post-emergence, 312 h, read-out: Morningglory, Ivy-leaved damage rating; for pest or weed control at 15.625 g/ha: 15.625 g ai/ha, evaluated after 13 days (100=total damage to plant; 0=no damage to plant); for pest or weed control at 62.5 g/ha: 62.5 g ai/ha; for pest or weed control at 62.5 g/ha / pest or weed control at 250 g/ha: evaluated after 13 days, 100=total damage to plant, 0=no damage to plant; for pest or weed control at 250 g/ha: 250 g ai/ha
Outline: as §2

corn (Zea mays) [11] = assay: Test G Post-Emergence Protocol; settings: Zea mays, post-emergence, 312 h, read-out: Corn damage rating; for plant injury at 15.625 g/ha: 15.625 g ai/ha, evaluated after 13 days (100=total damage to plant; 0=no damage to plant); for plant injury at 62.5 g/ha: 62.5 g ai/ha; for plant injury at 62.5 g/ha / plant injury at 250 g/ha: evaluated after 13 days, 100=total damage to plant, 0=no damage to plant; for plant injury at 250 g/ha: 250 g ai/ha
Outline: as §2

[12] = test system: redroot pigweed (Amaranthus retroflexus); assay: Test G Post-Emergence Protocol; settings: Amaranthus retroflexus, post-emergence, 312 h, read-out: Pigweed, Redroot damage rating; for pest or weed control at 15.625 g/ha: 15.625 g ai/ha, evaluated after 13 days (100=total damage to plant; 0=no damage to plant); for pest or weed control at 62.5 g/ha: 62.5 g ai/ha; for pest or weed control at 62.5 g/ha / pest or weed control at 250 g/ha: evaluated after 13 days, 100=total damage to plant, 0=no damage to plant; for pest or weed control at 250 g/ha: 250 g ai/ha
Outline: as §2

[13] = read-out: Morningglory, Ivy-leaved damage rating (100=total damage to plant; 0=no damage to plant)

Compound	pest or weed control at 15.625 g/ha [1] [%]	pest or weed control at 62.5 g/ha [1] [%]	pest or weed control at 250 g/ha [1] [%]	pest or weed control at 15.625 g/ha [2] [%]	pest or weed control at 62.5 g/ha [2] [%]	pest or weed control at 250 g/ha [2] [%]	pest or weed control at 15.625 g/ha [3] [%]	pest or weed control at 62.5 g/ha [3] [%]	pest or weed control at 250 g/ha [3] [%]	pest or weed control at 15.625 g/ha [4, 13] [%]	plant injury at 15.625 g/ha (corn (Zea mays) [5]) [%]	plant injury at 62.5 g/ha (corn (Zea mays) [5]) [%]	plant injury at 250 g/ha (corn (Zea mays) [5]) [%]	pest or weed control at 15.625 g/ha [6] [%]	pest or weed control at 62.5 g/ha [6] [%]	pest or weed control at 250 g/ha [6] [%]	pest or weed control at 15.625 g/ha [7] [%]	pest or weed control at 62.5 g/ha [7] [%]	pest or weed control at 250 g/ha [7] [%]	pest or weed control at 15.625 g/ha [8] [%]	also measured
CN1C[C@H](c2cc(C(C)(C)C)ncn2)[C@@H](C(=O)Nc2cccc(F)c2F)C1=O (racemic) [Compound 1667]	0	10	20	0	10	20	0	0	0	0	0	0	0	0	0	0	0	0	10	0	pest or weed control at 250 g/ha ([4]; 250 g ai/ha, read-out: Morningglory, Ivy-leaved damage rating (100=total damage to plant; 0=no damage to plant)): 30%; pest or weed control at 62.5 g/ha [8]: 0%; pest or weed control at 250 g/ha [8]: 20%; pest or weed control at 15.625 g/ha [9]: 0%; pest or weed control at 62.5 g/ha [9]: 0%; pest or weed control at 250 g/ha [9]: 0%; pest or weed control at 15.625 g/ha [10]: 0%; pest or weed control at 62.5 g/ha [10]: 0%; pest or weed control at 250 g/ha [10]: 0%; plant injury at 15.625 g/ha (corn (Zea mays) [11]): 0%; plant injury at 62.5 g/ha (corn (Zea mays) [11]): 0%; plant injury at 250 g/ha (corn (Zea mays) [11]): 0%; pest or weed control at 15.625 g/ha [12]: 0%; pest or weed control at 62.5 g/ha [12]: 0%; pest or weed control at 250 g/ha [12]: 0%
CN1C[C@H](c2ccc(C(F)(F)F)cc2)[C@@H](C(=O)Nc2cnccc2F)C1=O (racemic) [Compound 1744]	0	0	0	0	10	50	0	0	0	0	0	0	0	0	10	10	0	10	70	0	pest or weed control at 62.5 g/ha ([4]; 62.5 g ai/ha, 100=total damage to plant, 0=no damage to plant, read-out: Morningglory, Ivy-leaved damage rating): 0%; pest or weed control at 62.5 g/ha [8]: 20%; pest or weed control at 250 g/ha [8]: 60%; pest or weed control at 15.625 g/ha [9]: 0%; pest or weed control at 62.5 g/ha [9]: 0%; pest or weed control at 250 g/ha [9]: 10%; pest or weed control at 15.625 g/ha [10]: 0%; pest or weed control at 62.5 g/ha [10]: 0%; pest or weed control at 250 g/ha [10]: 40%; plant injury at 15.625 g/ha (corn (Zea mays) [11]): 0%; plant injury at 62.5 g/ha (corn (Zea mays) [11]): 0%; plant injury at 250 g/ha (corn (Zea mays) [11]): 10%; pest or weed control at 15.625 g/ha [12]: 0%; pest or weed control at 62.5 g/ha [12]: 10%; pest or weed control at 250 g/ha [12]: 30%
